Legend:
B. japonicum USDA 110 = assay: LCO production by B. japonicum USDA 110 (butanol extraction, HPLC); assay type: cell-based, Bradyrhizobium japonicum
Protocol: Cultures of B. japonicum (strain USDA 110) were grown at 28° C. in 600 ml of sterile yeast mannitol medium (YEM) at pH 6.8. The culture was shaken at 150 rpm until an OD620 of 0.4 to 0.6 was achieved (4 to 6 days). When the culture reached this stage, it was divided equally into four flasks (150 mL) and specific concentrations of JA and genistein were added to the cultures.
One hundred and fifty mL of each culture were extracted with 40 mL of the HPLC-grade butanol (Fisher Science Ltd., 112 Colonnade Road, Nepean, ON, Canada) by shaking together for 5 minutes. The two phases were then allowed to separate by leaving the mixture to stand overnight. The upper layer (butanol) was collected with a glass pipette and 25 mL were placed in a 250 ml evaporation flask. LCO extract solutions were stored at 4° C. until evaporation. This step was conducted at 80° C. with a Yamato RE 500 Rotary Evaporator (Yamato Scientific American Inc., Orangeburge, N.Y., USA). The butanol phase was evaporated down to 2 to 3 mL. The resulting light brown material was dissolved in 4 ml of 18% acetonitrile and stored in the dark at 4° C. in a glass tube sealed with parafilm.
For HPLC analysis we used a Vydac C18 reversed—phase column (VYDAC, Hesperia, Calif., USA) with a flow rate of 1.0 mL/min and a Vydac guard column (VYDAC, Hesperia, Calif., USA). We used at least 10 min. of isocratic run with 18% acetonitrile (AcN/H2O; w/w) to establish a baseline. The baseline value was always about 0.010. When a sample was loaded we conducted an isocratic elution with 18% AcN for 45 min. This step removed all non-polar light fractions. We then applied a gradient elution (18 to 82% AcN) for 70 min. LCOs begin to appear at 84 to 86 min of HPLC run time. We used B. japonicum Nod factor (BjV (C18:1, MeFuc)) obtained from G. Stacey (University of Tennessee, Knoxville, Tenn.) as a standard. The identity of the LCO was confirmed by the Complex Carbohydrate Research Center at the University of Georgia with FAB-MS and MALDI-TOF spectrometry analysis.
There were two experiments conducted. In the first the treatments consisted of factorial combinations of two concentrations (0 and 20 μM) of two signal materials (JA and genistein (zhang and Smith, 1995)). The experiment was organized following a randomized complete block design with three blocks. In experiment 1, two temperatures were used (17 and 25° C.). […]
Each of the above experiments was conducted two times and the experimental results were pooled and analyzed statistically by analysis of variance using the Statistical Analysis System computer package (SAS Institute Inc. 1980). […] Since the effects of temperature on growth were very large, the data from two temperatures used in the first experiment were analyzed separately.

[1] = system: Rhizobium leguminasorum strain RBL 1284; details: Rosas et al (1998); cited from earlier work
[2] = system: Bradyrhizobium japonicum USDA 3; assay: LCO production by wild type USDA3 (XAD resin extraction, HPLC); assay type: cell-based; details: for production of LCOs, in words: at optimum concentrations
Protocol: Bradyrhizobium japonicum (strain USDA 3) was grown at 28° C. in yeast extract mannitol medium (YEM) (mannitol 10 g, K2HPO4 0.5 g, MgSO4.7H2O 0.2 g, NaCl 0.1 g, yeast extract 0.4 g, and distilled water 1000 ml), pH 6.8, shaken at 150 rpm until the OD620 reached 0.4-0.6 (4-6 d) in the dark. Thereafter, 2.0 l of bacterial subculture was started by inoculating with material from the first culture (5 ml of the first culture per 250 ml of YEM media), until the OD620 reached to 0.2-0.4. At this stage, methyl jasmonate, jasmonic acid and genistein were added to culture so that the final concentraton for methyl jasmonate and jasmonic acid was 5, 10, 25, 50 and 100 μM and 5 μM for genistein. The culture was incubated for 48-96 h and the LCO extracted according to the following procedure.
The LCO from the induced bacterial culture was isolated with XAD resins. Before using XAD resins for extraction, they were first conditioned. Each 40 grams of XAD resins were first washed two times with 20 mL acetone after conditioning for 15 minutes. This was followed by two washes of 20 mL methanol when the resins were conditioned for 15 minutes. Finally, the XAD resins were conditioned (5 min) and washed with 20 mL dd. water two times. The conditioned resins were placed in the refrigerator at 4° C. until use.
For each one liter of bacterial culture, 40 grams of resin was added to the flask and these were shaken together overnight at 150 rpm. The culture along with the resin was poured through a funnel into a flask fitted with a course brass mesh (fine enough to allow the culture go quickly through and filter out the resin without any loss). At this stage, the resins are washed with water. In order to extract LCO from the resin, the XAD resin was passed through a vacuum filtration system. The fritted glass base of the system was fitted with Whatman #1 paper disk with the objective to keep the solvent with the bead until vacuum is applied. The resin beads were washed two times with 40 mL methanol after conditioning for 5 minutes. […]

O=c1c(-c2ccc(O)cc2)coc2cc(O)cc(O)c12 [GEN, 5,7,4′-trihydroxyisoflavone]
peak-time for LCO production (B. japonicum USDA 110; after genistein was added to the cell culture): 8 to 10 h

CC/C=C\CC1C(=O)CCC1CC(=O)OC (stereo not drawn) [MeJA, methyl jasmonate]
expression of nod genes, in words [1]: induced expression of nod genes | LCO production compared with optimum genistein concentration (5 μM) ([2]; 100 μM): substantially more LCO | production of LCOs, in words [2]: induced the production of LCOs

CC/C=C\C[C@H]1C(=O)CC[C@@H]1CC(=O)O [JA, [1R-[1α,2β(Z)]]-3-oxo-2-(pentenyl)cyclopentaneacetic acid]
expression of nod genes, in words [1]: induced expression of nod genes | production of LCOs, in words [2]: induced the production of LCOs | effect on LCO production, in words (B. japonicum USDA 110; 25° C., genistein present): not at 25 °C | effect on LCO production, in words (B. japonicum USDA 110; JA alone, without genistein, either temperature): can not promote LCO production | effect on LCO production, in words (B. japonicum USDA 110; low temperature (17° C.), genistein present): can improve LCO production
